Melting point data for ten compounds are collected here from US20030191279A1, “Urea derivatives useful as anticancer agents” (priority 1999, published 2003).

As to `O=C(NCC(=O)N(Cc1ccccc1)[C@@H]1c2ccccc2CC[C@H]1Cc1ccccc1)Nc1cccc(C(=O)O)c1` (relative stereo) [Example 1, trans-3-(3-{[Benzyl-(2-benzyl-1,2,3,4-tetrahydro-naphthalen-1-yl)-carbamoyl]-methyl}-ureido)-benzoic acid], the melting point is > 250 °C.

As to `O=C(NCC(=O)N(Cc1ccccc1)[C@@H]1c2ccccc2CC[C@H]1Cc1ccccc1)Nc1cccc(C(=O)Nc2nnn[nH]2)c1` (relative stereo) [Example 3, trans-3-(3-{[Benzyl-(2-benzyl-1,2,3,4-tetrahydro-naphthalen-1-yl)-carbamoyl]-methyl}-ureido)-N-(1H-tetrazol-5-yl)-benzamide], the melting point is 155 °C (dec.).

As for `O=C(NCC(=O)N(Cc1ccccc1)[C@@H]1c2ccccc2CC[C@H]1Cc1ccccc1)c1cccc(-c2nnn[nH]2)c1` (relative stereo) [Example 4, trans-N-{[Benzyl-(2-benzyl-1,2,3,4-tetrahydro-naphthalen-1-yl)-carbamoyl]-methyl}-3-(1H-tetrazol-5-yl)-benzamide], the melting point was 119 °C (dec.).

In turn, `COc1ccccc1CN(C(=O)CNC(=O)Nc1cccc(C(=O)O)c1)[C@@H]1c2ccccc2CC[C@H]1Cc1ccccc1` (relative stereo) [Example 11, trans-3-(3-{[(2-Benzyl-1,2,3,4-tetrahydro-naphthalen-1-yl)-(2-methoxy-benzyl)-carbamoyl]-methyl}-ureido)-benzoic acid] showed a melting point of 117 °C.

The compound `O=C(NCC(=O)N(Cc1cccs1)[C@@H]1c2ccccc2CC[C@H]1Cc1ccccc1)Nc1cccc(C(=O)O)c1` (relative stereo) [Example 13, trans-3-(3-{[(2-Benzyl-1,2,3,4-tetrahydro-naphthalen-1-yl)-thiophen-2-ylmethyl-carbamoyl]-methyl}-ureido)-benzoic acid] showed a melting point of 196 to 198 °C.

With `O=C(NCC(=O)N(Cc1ccccc1)[C@@H]1CCCC[C@H]1Cc1ccccc1)Nc1cccc(C(=O)O)c1` (relative stereo) [Example 14, trans-3-(3-{[Benzyl-(2-benzyl-cyclohexyl)-carbamoyl]-methyl)-ureido)-benzoic Acid], the melting point was 160 to 162 °C.

In turn, `CCN(C(=O)CNC(=O)Nc1cccc(C(=O)O)c1)[C@@H]1c2ccccc2CC[C@H]1Cc1ccccc1` (relative stereo) [Example 16, trans-3-(3-{[(2-Benzyl-1,2,3,4-tetrahydro-naphthalen-1yl)-ethyl-carbamoyl]-methyl}-ureido)-benzoic acid] showed a melting point of 130 °C.

On to `O=C(NCC(=O)N(Cc1nccs1)[C@@H]1c2ccccc2CC[C@H]1Cc1ccccc1)Nc1cccc(C(=O)O)c1` (relative stereo) [Example 17, trans-3-(3-{[(2-Benzyl-1,2,3,4-tetrahydro-naphthalen-1-yl)-thiazol-2-ylmethyl-carbamoyl]-methyl}-ureido)-benzoic acid], for which the melting point fell in the range of 194 to 195 °C.

The compound `COc1ccccc1C[C@@H]1CCc2ccccc2[C@H]1N(Cc1ccccc1)C(=O)CNC(=O)Nc1cccc(C(=O)O)c1` (relative stereo) [Example 18, trans-3-[3-({Benzyl-[2-(2-methoxy-benzyl)-1,2,3,4-tetrahydro-naphthalen-1-yl]-carbamoyl}-methyl)-ureido]-benzoic acid] displayed a melting point of 130 °C.

`O=C(O)c1cc(C(=O)NCC(=O)N(Cc2ccccc2)[C@@H]2CCCC[C@H]2Cc2ccccc2)ncn1` (relative stereo) [Example 20, trans-6-({[Benzyl-(2-benzyl-cyclohexyl)-carbamoyl]-methyl}-carbamoyl)-pyrimidine-4-carboxylic acid]: the melting point turned out to be 120 °C.
